Like-named read-outs stand apart in the source and are kept apart here. Each block holds one molecule with its values, some of them ahead of it.
Experiments:
[1] = target: T1, 5α-Reductase of Rat Liver Microsomes (Rattus norvegicus, UniProt P24008)
T1 sequence (P24008 1-259): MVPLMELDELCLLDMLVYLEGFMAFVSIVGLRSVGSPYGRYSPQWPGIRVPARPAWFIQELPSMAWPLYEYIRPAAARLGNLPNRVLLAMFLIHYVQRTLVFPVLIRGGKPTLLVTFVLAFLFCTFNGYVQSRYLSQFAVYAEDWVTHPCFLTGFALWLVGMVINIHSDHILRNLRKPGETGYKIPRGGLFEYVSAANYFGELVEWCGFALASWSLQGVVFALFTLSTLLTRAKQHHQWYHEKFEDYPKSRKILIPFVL

[2] = target: T1, 5α-Reductase of Rat Liver Microsomes; assay: [3H]4-MA binding assay, rat liver microsomes (tea catechins); conditions: for inhibition at 5 µM / inhibition at 10 µM / inhibition at 20 µM / inhibition at 40 µM / inhibition at 200 µM: read-out: % Inhibition of [^3 H]4-MA binding; for inhibitory activity: concentrations up to 200 μM
Experimental: Microsomes were prepared as described previously (Liang and Liao, 1992) from the liver of adult Sprague-Dawley female rats or Rat-1A cells expressing a specific type of human 5α-reductase. Each study was carried out in duplicate or triplicate which were usually within 10% of each other. Several studies were preformed to assure that the results shown are representative. The data presented was based on the rate of reaction.
[^3 H]4-MA binding assay were described in detail previously (Liang and Liao, 1992; Liang et al., 1983). […] The reaction was started by the addition of 25 μl of microsomes (25 μg protein). After 30-60 min incubation at 0° C., the [^3 H]4-MA bound to microsomes was collected on a Whatman GF/F glass fiber, washed and radioactivity determined (Liang and Liao, 1992).

- inhibitory activity in [^3 H]4-MA binding assay [1]: slightly stimulatory
Molecule: CCCCCCCC/C=C\CCCCCCCC(=O)OCC(O)COC(=O)CCCCCCC/C=C\CCCCCCCC [3-diolein]

Molecule: Oc1cc(O)c2c(c1)O[C@@H](c1cc(O)c(O)c(O)c1)[C@H](O)C2 [(-)Gallocatechin]
- inhibition at 5 µM [2]: < 10%
- inhibition at 10 µM [2]: < 10%
- inhibition at 20 µM [2]: < 10%
- inhibition at 40 µM [2]: < 10%
- inhibition at 200 µM [2]: < 10%

Molecule: O=C(O[C@H]1Cc2c(O)cc(O)cc2O[C@@H]1c1ccc(O)c(O)c1)c1cc(O)c(O)c(O)c1 [CG, (-)Catechin-3-gallate]
- inhibition at 5 µM [2]: 12%
- inhibition at 10 µM [2]: 31%
- inhibition at 20 µM [2]: 53%
- inhibition at 40 µM [2]: 73%
- inhibition at 200 µM [2]: 91%
- IC50 ([2]; type 1 5α-reductase of rat liver microsomes, read-out: IC50): 18 µM

Molecule: Cn1c(=O)c2c(ncn2C)n(C)c1=O [Caffeine, reference compound]
- inhibitory activity [2]: not active

- inhibitory activity in [^3 H]4-MA binding assay [1]: not active
Molecule: CCCCC[C@H](O)/C=C/[C@@H]1[C@H]2C/C(=C/CCCC(=O)O)O[C@H]2C[C@H]1O [Prostaglandin 12]

- inhibitory activity in [^3 H]4-MA binding assay [1]: not active
Molecule: CCCCC[C@H](O)/C=C/[C@H]1[C@H](O)CC(=O)[C@@H]1C/C=C\CCCC(=O)O [Prostaglandin E2]

Molecule: CCCCC[C@H](O)/C=C/[C@@H]1[C@@H](C/C=C\CCCC(=O)O)[C@@H](O)C[C@H]1O [Prostaglandin F2a]
- inhibitory activity in [^3 H]4-MA binding assay [1]: not active

Molecule: CC/C=C\C/C=C\C/C=C\CCCCCCCC(=O)OC [linolenic acid methyl ester]
- % Inhibition of [^3 H]4-MA binding ([1]; Table 1, 200 μM, 200 µM): 32%

- inhibitory activity in [^3 H]4-MA binding assay ([1]; 0.2 mM): somewhat active
Molecule: CCCCC[C@H](O)/C=C/[C@H]1C=CC(=O)[C@@H]1CCCCCCC(=O)O [prostaglandin A1]

- inhibitory activity in [^3 H]4-MA binding assay ([1]; 0.2 mM): somewhat active
Molecule: CCCCC[C@H](O)/C=C/[C@H]1C=CC(=O)[C@@H]1C/C=C\CCCC(=O)O [prostaglandin A2]

- inhibitory activity in [^3 H]4-MA binding assay ([1]; 0.2 mM): somewhat active
Molecule: CCCCC[C@H](O)/C=C/C1=C(CCCCCCC(=O)O)C(=O)CC1 [prostaglandin B1]

- inhibitory activity in [^3 H]4-MA binding assay ([1]; 0.2 mM): somewhat active
Molecule: CCCCC[C@H](O)/C=C/C1=C(C/C=C\CCCC(=O)O)C(=O)CC1 [prostaglandin B2]

- inhibitory activity in [^3 H]4-MA binding assay ([1]; 0.2 mM): somewhat active
Molecule: CCCCC[C@H](O)/C=C/[C@H]1C(=O)C[C@H](O)[C@@H]1C/C=C\CCCC(=O)O [prostaglandin D2]

- inhibitory activity in [^3 H]4-MA binding assay ([1]; 0.2 mM): somewhat active
Molecule: CCCCC[C@H](O)/C=C/[C@H]1[C@H](O)CC(=O)[C@@H]1CCCCCCC(=O)O [prostaglandin E1]

- inhibitory activity in [^3 H]4-MA binding assay ([1]; 0.2 mM): somewhat active
Molecule: CCCCC[C@H](O)/C=C/[C@@H]1[C@@H](CCCCCCC(=O)O)[C@@H](O)C[C@H]1O [prostaglandin F1a]

Molecule: O=c1c(O)c(-c2ccc(O)c(O)c2)oc2cc(O)cc(O)c12 [quercetin, reference compound]
- inhibitory activity [2]: inactive

Molecule: CC1=C(/C=C/C(C)=C/C=C/C(C)=C/C(=O)O)C(C)(C)CCC1 [retinoic acid]
- inhibitory activity in [^3 H]4-MA binding assay [1]: inactive

- inhibitory activity in [^3 H]4-MA binding assay [1]: slightly stimulatory
Molecule: CC1=C(/C=C/C(C)=C/C=C/C(C)=C/CO)C(C)(C)CCC1 [retinol]

Molecule: Phosphatidylcholine
- inhibitory activity in [^3 H]4-MA binding assay [1]: slightly stimulatory

- inhibitory activity in [^3 H]4-MA binding assay [1]: inactive
Molecule: carotenes

- IC50 [1]: > 200 µM
Molecule: di-γ-linolenin
- % Inhibition of [^3 H]4-MA binding ([1]; Table 2, 10 μM): NA (less than 10% inhibition were considered not active (NA))
- % Inhibition of [^3 H]4-MA binding ([1]; Table 2, 40 μM): NA (less than 10% inhibition were considered not active (NA))
- % Inhibition of [^3 H]4-MA binding ([1]; Table 2, 200 μM): NA (less than 10% inhibition were considered not active (NA))

- IC50 [1]: > 200 µM
Molecule: heneicosene nitrile

- IC50 [1]: > 200 µM
Molecule: methyl docosatetraenoate

- inhibitory activity [2]: inactive
Molecule: naphthaflavone [reference compound]

- inhibitory activity in [^3 H]4-MA binding assay [1]: slightly stimulatory
Molecule: phosphatidyl ethanolamine
